Reference: patent US11851389B2, “Cationic lipids for nucleic acid delivery and preparation thereof” (RAMOT AT TEL-AVIV UNIVERSITY LTD., priority 2016, dated 2023)

Experiments:
[1] = system: HEK 293 cells; experiment: In vitro expression of mKATE-pDNA, flow cytometry; format: cell-based; details: 72 hr; for mKATE expression: HEK 293, 0.6 nM pDNA; for Dose dependence of mKATE expression: HEK 293, different amount pDNA
Procedure: In vitro expression of pDNA in HEK 293 cells: HEK cells were treated with LNPs composed of either lipid1 or lipid 10 encapsulated with mKATE-pDNA at the concentration of 0.6 nM pDNA. After 72 hr, mKATE expression was analyzed by flow cytometry.
Dose dependent expression of pDNA in HEK 293 cells: HEK cells were treated with LNPs composed of either lipid1 or lipid 10 encapsulated with mKATE-pDNA at different amount pDNA. After 72 hr, mKATE expression was analyzed by flow cytometry.

[2] = LNP size distribution, PDI and ζ potential by dynamic light scattering; format: physicochemical; details: LNP-siRNA formulations; for PDI / Size (d · nm): DLS
Procedure: LNPs were prepared by using microfluidic micro mixture (Precision NanoSystems, Vancouver, BC, Canada) as described by Cohen et. al. One volume of lipid mixtures (cationic lipid, DSPC, Chol, DMG-PEG and DSPE-PEG Mal at 50:10:38:1.5:0.5 mole ratio, […] total lipid concentration) in ethanol and three volumes of siRNA (1:16 w/w siRNA to lipid) containing acetate buffer solutions were injected through the micro mixer at a combined flow rate of 2 mL/minute (0.5 mL/min for ethanol and 1.5 mL/min for aqueous buffer). For labeled LNPs, 10% of Alexa-647 labeled siRNA were incorporated. For Cy5 labeled particles, 10% Cy5 labeled non-targeted siRNA was used. The resultant mixture was dialyzed against PBS (pH 7.4) for 16 h to remove ethanol.
LNPs size distribution and ζ potential were determined by dynamic light scattering using a Malvern nano ZS ζ-sizer (Malvern instruments, UK). For size measurements, LNPs were diluted 1:20 in PBS. […] For ζ potential measurements, LNPs were diluted 1:200 in DDW. In some cases, as indicated, size and zeta potential measurements were performed in water.

[3] = system: Human ovarian cancer cells (NAR cells); experiment: Apoptosis by FACS using PI/Annexin after siPLK1-LNPs; format: cell-based; details: 48 hr; for Apoptosis induced by siPLK1-LNPs: PI/Annexin FACS
Procedure: (§1) Supt1 or NAR or OVCAR cells were placed in tissue culture 12-wells plates at a density of 1×10^5 cells with 1 mL of full medium. LNPs containing different siRNAs (siPLK1 or siCD45 or siLUC) were added to the wells and the concentration was mentioned in figures. Cells were isolated at different time intervals mentioned in the figures and analyzed by either flow cytometry (for siCD45 knockdown), or qPCR for analysis of PLK1 silencing. Apoptosis assay using PI/Annexin was analyzed by flow cytometry in case of siPLK1 induced cell death.
Human ovarian cancer cells (NAR cells) were treated with lipid1/siPLK1 nanoparticles for 48 hr at different siRNA concentrations (0.2 μM and 0.1 μM). Apoptotic cells were analyzed by FACS using PI/Annexin. […] Percentage of early apoptotic cells was higher in cells treated with siPLK1-LNPs at 0.2 uM dose of siPLK1.
Human ovarian cancer cells (NAR cells) were treated with either lipid10 or lipid 11/siPLK1 nanoparticles for 48 hr at different siRNA concentrations (0.1 μM and 0.05 μM). siLUC-LNPs used as a negative control. Apoptotic cells were analyzed by FACS using PI/Annexin.

[4] = system: Drug resistant human ovarian carcinoma cells (NAR); experiment: PLK-1 expression by qPCR after LNP-siPLK-1 or LNP-siLuc; format: cell-based; details: 72 hrs
Procedure: (§2) The mRNA levels of pololike kinase 1 (PLK1 gene) in cells was quantified by real-time PCR, forty eight or Seventy-two hours post-transfection. Total RNA was isolated using the E-Z RNA purification kit (Biological industries, Beit Haemek, Israel), and 1 μg of RNA from each sample was reverse transcribed into cDNA using the High Capacity cDNA Reverse Transcription Kit (Applied Biosystems, Foster City, CA), Quantification of cDNA (5 ng total) was performed on the step one Sequence Detection System (Applied Biosystems, Foster City, CA) using syber green (Applied Biosystems). GAPDH was chosen as a housekeeping gene.
as §1
Drug resistant human ovarian carcinoma cells (NAR) were treated with either LNP-siPLK-1 or LNP-siLuc nanoparticles Lipid 1 LNPs (A); Lipid 10&11 LNPs (B) for 72 hrs and PLK-1 expression was measured by qPCR as described in Example 1.

[5] = system: Human multiple myeloma suspension cells (MM1); experiment: Cell viability after PLK1 silencing, XTT assay; format: cell-based; details: MM1, 48 hrs
Procedure: Human multiple myeloma suspension cells (MM1) were incubated with siPLK1-LNPs or siCtl-LNPs composed of either lipid 38 or 55 at different concentrations for 48 hrs. Cell viability affected by PLK1 down regulation was measured by XTT assay.

[6] = system: Human multiple myeloma suspension cells (U266); experiment: PLK1 expression by qPCR after siPLK1-LNPs; format: cell-based; details: U266, 48 hrs, normalized to LNPs-ctl siRNA treated cells
Procedure: as §2
Human multiple myeloma suspension cells (U266) were incubated with LNPs containing siPLK1 at different concentrations for 48 hrs. PLK1 expression was measured by qPCR. PLK1-mRNA levels were normalized to LNPs-ctl siRNA treated cells.

[7] = system: Human B-cell lymphoma suspension cells (RPMI-8226); experiment: Cell viability after PLK1 silencing, XTT assay; format: cell-based; details: RPMI-8226, 48 hrs
Procedure: Human B-cell lymphoma suspension cells (RPMI-8226) were incubated with siPLK1-LNPs or siCtl-LNPs composed of either lipid 38 or 55 at different concentrations for 48 hrs. Cell viability affected by PLK1 down regulation was measured by XTT assay.

[8] = system: Human colon carcinoma cells (HCT116); experiment: Toxicity of LNPs with ctl siRNA, XTT cell viability; format: cell-based; details: 72 hrs
Procedure: Human colon carcinoma cells (HCT116) were incubated with LNPs with ctl siRNA (see methods) for 72 hrs. The cell viability was measured by XTT assay. Toxicity of LNPs composed of either lipid 38 or lipid 55 is compared with gold standard LNPs composed of Dlin-MC3-DMA.

[9] = system: Human multiple myeloma suspension cells (U266); experiment: Cell viability after PLK1 silencing, XTT assay; format: cell-based; details: U266, 48 hrs
Procedure: Human multiple myeloma suspension cells (U266) were incubated with siPLK1-LNPs or siCtl-LNPs composed of either lipid 38 or 55 at different concentrations for 48 hrs. Cell viability affected by PLK1 down regulation was measured by XTT assay.

[10] = system: Spheroids of drug resistant human ovarian carcinoma cells (NAR); experiment: PLK-1 expression by qPCR in 3D spheroids; format: cell-based; details: 72 hr
Procedure: as §2
Spheroids of drug resistant human ovarian carcinoma cells (NAR) were treated with LNPs composed of lipid1 and with either siPLK-1 or siLuc s for 72 hr and PLK-1 expression was measured by qPCR. Spheroids are 3D cultures of tumor cells mimicking in vivo tumors.

[11] = system: Human T cells SupT1; experiment: In vitro CD45 gene silencing by LNP-siCD45, flow cytometry; format: cell-based; details: LNP with siCD45, 48 hrs or 72 hrs, 0.4, 0.2, 0.1 μM siRNA
Procedure: as §1
FIG. 1 depicts in vitro gene silencing effect lipid 1: Human T cells SupT1 were treated with lipid nanoparticle (LNP) comprising of cationic lipid 1 encapsulated siCD45 for 48 hrs (A) or 72 hrs (B) at different siRNA doses (0.4 μM, 0.2 μM, 0.1 μM).

[12] = system: Human ovarian carcinoma cells (OVCAR 8); experiment: PLK-1 expression by qPCR after LNP-siPLK1 or siLUC; format: cell-based; details: OVCAR 8, 72 hr
Procedure: as §2, §1
Human ovarian carcinoma cells (OVCAR 8) were treated with lipid 1 containing LNPs with either siPLK1 or siLUC for 72 hr and PLK-1 expression was measured by qPCR.

Row | SMILES | Zeta-potential (mV) [2] | PDI [2] | Size (d · nm) [2] | also measured
1 | CCCCC/C=C\C/C=C\CCCCCCCCC(CCCCCCCC/C=C\C/C=C\CCCCC)OC(=O)CCCN(C)C [Dlin-MC3-DMA, reference compound] | −1 mV | 0.18 | 44.5 nm | mKATE expression [1]: did not show any effect on mKATE expression
2 | CCCCC/C=C\C/C=C\CCCCCCCCN(CCCCCCCC/C=C\C/C=C\CCCCC)OC(=O)CCCN(C)C [Lipid 14] | −3.6 mV | 0.09 | 44.3 nm | 
3 | CCCCC/C=C\C/C=C\CCCCCCCCN(CCCCCCCC/C=C\C/C=C\CCCCC)NC(=O)CCCN(C)C [Lipid 10] | 18.5 mV | 0.08 | 50.5 nm | mKATE expression [1]: mKATE expression was observed; Dose dependence of mKATE expression [1]: dose dependent expression of mKATE; Apoptosis induced by siPLK1-LNPs [3]: efficiently downregulating PLK1 gene followed by inducing apoptosis in NAR cells; PLK-1 expression, LNP-siLuc control siRNA [4]: no effect on plk1 expression; PLK-1 expression, LNP-siPLK-1 [4]: down regulating plk1 gene efficiently at different doses
4 | CCCCC/C=C\C/C=C\CCCCCCCCN(CCCCCCCC/C=C\C/C=C\CCCCC)NC(=O)CCCN1CCN(C)CC1 [Lipid 21] | −2.8 mV | 0.16 | 67.7 nm | 
5 | CCCCC/C=C\C/C=C\CCCCCCCCN(CCCCCCCC/C=C\C/C=C\CCCCC)CCOC(=O)CCCN1CCN(C)CC1 [Lipid 55] | −1.28 mV | 0.17 | 97.0 nm | Cell viability, siCtl-LNPs [5]: no effect on the cell viability; Cell viability, siPLK1-LNPs [5]: dose dependent effect on multiple myeloma cancer cell viability; PLK1 expression, siPLK1-LNPs [6]: efficiently down regulate; Cell viability, siCtl-LNPs [7]: no effect on the cell viability; Cell viability, siPLK1-LNPs [7]: dose dependent effect on B-cell lymphoma cancer cell viability; Toxicity of LNPs (cell viability) [8]: less toxic than LNPs composed of Dlin-MC3-DMA; Cell viability, siCtl-LNPs [9]: no effect on the cell viability; Cell viability, siPLK1-LNPs [9]: more effect on cell viability compared to Dlin-MC3-DMA LNPs
6 | CCCCC/C=C\C/C=C\CCCCCCCCNN(CCCCCCCC/C=C\C/C=C\CCCCC)CCN(C)C [Lipid 1, 2-(1,2-di((9Z,12Z)-octadeca-9,12-dien-1-yl)hydrazinyl)-N,N-dimethylethan-1-amine] | 18.5 mV | 0.14 | 45.1 nm | mKATE expression [1]: mKATE expression was observed; Dose dependence of mKATE expression [1]: did not show any dose dependent expression; Percentage of early apoptotic cells ([3]; 0.2 uM dose of siPLK1): higher; Apoptosis induced by siPLK1-LNPs [3]: inducing apoptosis in cancer cell; Effect on cell cycle of siLUC-LNPs ([3]; control siRNA): no effect on cell cycle; PLK-1 expression, siPLK1-LNPs [10]: significantly downregulating PLK1 gene compared to siLUC-LNPs; CD45 gene down-regulation [11]: down-regulate CD45 gene in hard to transfect T cells; PLK-1 expression, LNP-siLuc control siRNA [4]: did not affect plk1 expression; PLK-1 expression, LNP-siPLK-1 [4]: downregulating the proto-oncogene PLK1 efficiently; PLK-1 expression, siPLK1-LNPs [12]: efficiently downregulating PLK1 gene compared to dlin-mc3-dma containing LNPs
7 | CCCCC/C=C\C/C=C\CCCCCCCCN(CCCCCCCC/C=C\C/C=C\CCCCC)NC(=O)[C@@H](N)CCCCN(C)C [Lipid 11, 2-amino-6-(dimethylamino)-N′,N′-di((9Z,12Z)-octadeca-9,12-dien-1-yl)hexanehydrazide] | 20.4 mV | 0.10 | 108.5 nm | Apoptosis induced by siPLK1-LNPs [3]: efficiently downregulating PLK1 gene followed by inducing apoptosis in NAR cells; PLK-1 expression, LNP-siLuc control siRNA [4]: no effect on plk1 expression; PLK-1 expression, LNP-siPLK-1 [4]: down regulating plk1 gene efficiently at different doses
8 | CCCCC/C=C\C/C=C\CCCCCCCCN(CCCCCCCC/C=C\C/C=C\CCCCC)OC(=O)CN(C)C [Lipid 9] | −13.6 mV | 0.04 | 75.1 nm | 
9 | CCCCC/C=C\C/C=C\CCCCCCCCN(CCCCCCCC/C=C\C/C=C\CCCCC)NCCN(C)C [Lipid 15] | 10.1 mV | 0.11 | 52.5 nm | 
10 | CCCCC/C=C\C/C=C\CCCCCCCCNN(CCCCCCCC/C=C\C/C=C\CCCCC)CCCCN(C)C [Lipid 2] | 13.9 mV | 0.06 | 56.3 nm | 
11 | CCCCC/C=C\C/C=C\CCCCCCCCN(CCCCCCCC/C=C\C/C=C\CCCCC)OC(=O)Cc1c[nH]cn1 [Lipid 33] | −10.8 mV | 0.15 | 46.0 nm | 
